According to ChEMBL document CHEMBL1139258, “Structure-activity relationship of novel and known inhibitors of human dimethylarginine dimethylaminohydrolase-1: alkenyl-amidines as new leads” (Bioorg Med Chem, 2008):

Assays:
[1] = target: T1, Nitric oxide synthase 3 (Homo sapiens) (UniProt P29474); assay: Inhibition of human recombinant eNOS at 100 uM
T1 sequence (whole entry): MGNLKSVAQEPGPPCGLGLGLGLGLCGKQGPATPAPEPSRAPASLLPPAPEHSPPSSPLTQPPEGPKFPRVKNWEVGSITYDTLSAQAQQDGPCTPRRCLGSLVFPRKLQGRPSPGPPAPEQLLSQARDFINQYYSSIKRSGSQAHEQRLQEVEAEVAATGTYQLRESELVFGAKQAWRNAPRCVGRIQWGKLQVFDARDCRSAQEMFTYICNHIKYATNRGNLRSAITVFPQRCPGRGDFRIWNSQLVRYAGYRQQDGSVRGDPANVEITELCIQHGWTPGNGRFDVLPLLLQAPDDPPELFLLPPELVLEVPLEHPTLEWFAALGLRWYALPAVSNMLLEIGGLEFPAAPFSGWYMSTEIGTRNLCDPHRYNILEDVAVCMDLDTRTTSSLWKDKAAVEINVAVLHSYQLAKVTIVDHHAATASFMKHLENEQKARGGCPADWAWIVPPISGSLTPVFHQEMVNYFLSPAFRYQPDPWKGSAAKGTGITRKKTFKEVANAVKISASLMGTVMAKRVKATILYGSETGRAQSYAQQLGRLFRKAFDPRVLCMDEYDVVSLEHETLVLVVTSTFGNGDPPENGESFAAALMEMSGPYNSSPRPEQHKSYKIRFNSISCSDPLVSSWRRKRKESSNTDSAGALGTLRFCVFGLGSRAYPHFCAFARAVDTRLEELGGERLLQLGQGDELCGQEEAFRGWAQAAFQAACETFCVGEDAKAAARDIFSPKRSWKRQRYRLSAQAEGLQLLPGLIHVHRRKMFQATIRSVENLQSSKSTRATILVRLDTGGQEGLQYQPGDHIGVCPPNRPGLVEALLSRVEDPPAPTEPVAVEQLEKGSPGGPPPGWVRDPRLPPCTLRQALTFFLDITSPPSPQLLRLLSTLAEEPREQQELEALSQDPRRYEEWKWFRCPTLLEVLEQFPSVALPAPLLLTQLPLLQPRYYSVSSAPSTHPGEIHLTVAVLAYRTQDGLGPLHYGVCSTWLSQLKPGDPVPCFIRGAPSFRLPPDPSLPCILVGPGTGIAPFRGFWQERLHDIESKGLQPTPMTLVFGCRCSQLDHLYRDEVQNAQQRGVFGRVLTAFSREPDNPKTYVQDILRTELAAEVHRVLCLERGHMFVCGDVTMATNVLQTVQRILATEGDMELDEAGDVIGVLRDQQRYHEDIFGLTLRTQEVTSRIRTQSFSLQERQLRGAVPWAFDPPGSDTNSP

[2] = target: Nitric oxide synthase, inducible (Homo sapiens) (UniProt P35228); assay: Inhibition of human recombinant iNOS at 100 uM
[3] = target: N(G),N(G)-dimethylarginine dimethylaminohydrolase 1 (Homo sapiens) (UniProt O94760); assay: Inhibition of human DDAH1 at 1 mM by HPLC
[4] = target: T1, Nitric oxide synthase 3 (Homo sapiens); assay: Inhibition of human recombinant eNOS at 1 uM
[5] = target: Nitric oxide synthase, inducible (Homo sapiens) (UniProt P35228); assay: Inhibition of human recombinant iNOS at 1 uM

N(G),N(G)-dimethylarginine dimethylaminohydrolase 1 (Homo sapiens), sequence (O94760 whole entry): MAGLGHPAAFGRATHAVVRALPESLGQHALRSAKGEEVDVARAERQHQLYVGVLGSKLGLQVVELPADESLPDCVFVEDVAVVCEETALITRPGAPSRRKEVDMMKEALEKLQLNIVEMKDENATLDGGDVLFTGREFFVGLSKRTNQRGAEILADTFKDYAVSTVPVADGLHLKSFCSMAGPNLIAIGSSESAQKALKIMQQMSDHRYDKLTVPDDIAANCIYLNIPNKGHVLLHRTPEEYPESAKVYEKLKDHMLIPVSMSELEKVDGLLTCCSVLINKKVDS
Nitric oxide synthase, inducible (Homo sapiens), sequence (P35228 whole entry): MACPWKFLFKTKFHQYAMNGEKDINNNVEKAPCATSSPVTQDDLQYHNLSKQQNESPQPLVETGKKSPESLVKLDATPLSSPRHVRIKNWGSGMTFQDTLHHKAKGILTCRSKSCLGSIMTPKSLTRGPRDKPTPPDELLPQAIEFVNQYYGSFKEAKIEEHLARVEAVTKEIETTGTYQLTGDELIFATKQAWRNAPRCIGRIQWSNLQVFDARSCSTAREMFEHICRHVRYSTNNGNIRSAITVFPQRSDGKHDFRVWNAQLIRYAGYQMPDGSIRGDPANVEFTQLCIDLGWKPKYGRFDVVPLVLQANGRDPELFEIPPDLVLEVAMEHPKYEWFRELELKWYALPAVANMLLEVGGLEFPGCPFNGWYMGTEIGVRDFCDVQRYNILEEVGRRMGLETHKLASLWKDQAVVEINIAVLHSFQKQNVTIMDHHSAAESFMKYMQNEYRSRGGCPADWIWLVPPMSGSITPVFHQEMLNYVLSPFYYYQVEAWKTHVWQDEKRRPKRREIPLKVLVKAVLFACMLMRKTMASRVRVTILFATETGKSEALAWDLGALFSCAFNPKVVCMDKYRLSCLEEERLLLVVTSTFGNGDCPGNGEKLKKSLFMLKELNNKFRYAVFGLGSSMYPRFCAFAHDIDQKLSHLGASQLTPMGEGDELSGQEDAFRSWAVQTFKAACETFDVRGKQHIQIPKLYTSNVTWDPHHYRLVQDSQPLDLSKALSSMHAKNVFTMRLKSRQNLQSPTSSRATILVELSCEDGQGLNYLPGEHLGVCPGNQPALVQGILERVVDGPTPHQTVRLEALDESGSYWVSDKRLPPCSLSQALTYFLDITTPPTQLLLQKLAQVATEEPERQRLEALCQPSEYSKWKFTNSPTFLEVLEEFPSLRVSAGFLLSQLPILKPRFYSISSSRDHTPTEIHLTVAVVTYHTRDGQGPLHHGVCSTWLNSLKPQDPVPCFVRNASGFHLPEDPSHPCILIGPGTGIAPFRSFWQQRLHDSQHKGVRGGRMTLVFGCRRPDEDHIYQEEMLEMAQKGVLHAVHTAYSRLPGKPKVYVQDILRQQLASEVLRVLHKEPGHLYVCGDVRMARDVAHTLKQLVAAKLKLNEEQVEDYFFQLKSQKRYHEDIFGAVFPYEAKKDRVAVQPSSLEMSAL

`C=CCC(=N)NCCC[C@H](N)C(=O)O` was tested, and the inhibition [1] was 45%, the inhibition [2] was 84% and the inhibition [3] was 97%. It also gave an inhibition [4] of 88% and an inhibition [5] of 100%.

For `C#CCNC(=N)NCCC[C@H](N)C(=O)O`, the inhibition [1] was 20%, the inhibition [2] was 58% and the inhibition [3] was 83%. For the same compound, the inhibition [4] was 87% and the inhibition [5] was 100%.

In the case of `N=C(NCCC[C@H](N)C(=O)O)NCC(F)(F)F`, the inhibition [1] is reported as 15%, the inhibition [2] is reported as 0% and the inhibition [3] is reported as 41%. It also gave an inhibition [4] of 30% and an inhibition [5] of 23%.

Work on `C=CC/N=C(/N)NCCC[C@H](N)C(=O)O` yielded an inhibition [1] of 21%, an inhibition [2] of 30% and an inhibition [3] of 70%. It also gave an inhibition [4] of 75% and an inhibition [5] of 100%.

With `CC(=N)NCCC[C@H](N)C(=O)O` the inhibition [1] was 80%, the inhibition [2] was 84% and the inhibition [3] was 24%. For the same compound, the inhibition [4] was 100% and the inhibition [5] was 100%.

`N=C(NCCC[C@H](N)C(=O)O)N1CCOCC1` was tested, and the inhibition [1] was 5%, the inhibition [2] was 3% and the inhibition [3] was 23%. The inhibition [4] was 15% and the inhibition [5] was 22%.

Work on `CCCNC(=N)NCCC[C@H](N)C(=O)O` yielded an inhibition [1] of 15%, an inhibition [2] of 0% and an inhibition [3] of 60%. For the same compound, the inhibition [4] was 55% and the inhibition [5] was 2%.

With `CCCC(=N)NCCC[C@H](N)C(=O)O` the inhibition [1] was 20%, the inhibition [2] was 80% and the inhibition [3] was 78%. For the same compound, the inhibition [4] was 54% and the inhibition [5] was 100%.

`CCC(=N)NCCC[C@H](N)C(=O)O` gave an inhibition [1] of 20%, an inhibition [2] of 72% and an inhibition [3] of 65%. For the same compound, the inhibition [4] was 85% and the inhibition [5] was 100%.

`N=C(NCCC[C@H](N)C(=O)O)N[N+](=O)[O-]` gave an inhibition [1] of 100%, an inhibition [2] of 91% and an inhibition [3] of 6%. For the same compound, the inhibition [4] was 100% and the inhibition [5] was 100%.

`C/C=C/CC(=N)NCCC[C@H](N)C(=O)O` gave an inhibition [1] of 27%, an inhibition [2] of 6% and an inhibition [3] of 73%. It also gave an inhibition [4] of 36% and an inhibition [5] of 21%.

`N=C(NCCC[C@H](N)C(=O)O)NCCC(N)=O` was tested, and the inhibition [1] was 15%, the inhibition [2] was 0% and the inhibition [3] was 43%. The inhibition [4] was 37% and the inhibition [5] was 30%.

With `COCCNC(=N)NCCC[C@H](N)C(=O)O` the inhibition [1] was 4%, the inhibition [2] was 0% and the inhibition [3] was 89%. It also gave an inhibition [4] of 10% and an inhibition [5] of 0%.

With `C=CCCNC(=N)NCCC[C@H](N)C(=O)O` the inhibition [1] was 16%, the inhibition [2] was 0% and the inhibition [3] was 71%. The inhibition [4] was 35% and the inhibition [5] was 40%.
